Assay results from the supplement of paper PMC10307832.

Columns and labels:
Assay in all cases: relative viability (nuclei count vs DMSO), 5 days (fraction); higher = more cells survive
Sulindac + Dasatinib = compound: CC1=C(CC(=O)O)c2cc(F)ccc2/C1=C\c1ccc([S+](C)[O-])cc1 [Sulindac] + Cc1nc(Nc2ncc(C(=O)Nc3c(C)cccc3Cl)s2)cc(N2CCN(CCO)CC2)n1 [Dasatinib] (partner 0.075 µM)
Outline: (§1)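 Medians of duplicate plates are given as relative viability. That measure is the nuclei count in treated wells divided by the count in vehicle wells. Counts were taken on 4× images of lung cancer cell lines in 1536-well plates, 5 days after pin-tool dosing the day after seeding with one drug alone or a fixed anchor-drug dose plus five library-drug doses (not always all listed) in √10 steps.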

[1] = compound: CN[C@@H]1C[C@H]2O[C@@](C)([C@@H]1OC)n1c3ccccc3c3c4c(c5c6ccccc6n2c5c31)C(=O)NC4 [Staurosporine] + CS(=O)(=O)N1CCN(Cc2cc3nc(-c4cccc5[nH]ncc45)nc(N4CCOCC4)c3s2)CC1 [Pictilisib] (partner 1 µM)
Outline: as §1

[2] = compound: O=c1[nH]cc(F)c(=O)[nH]1 [5-Fluorouracil] + CCNC(=O)c1noc(-c2cc(C(C)C)c(O)cc2O)c1-c1ccc(CN2CCOCC2)cc1 [Luminespib] (partner 0.01 µM)
Outline: as §1

[3] = compound: O=c1[nH]cc(F)c(=O)[nH]1 [5-Fluorouracil] + CS(=O)(=O)CCNCc1ccc(-c2ccc3ncnc(Nc4ccc(OCc5cccc(F)c5)c(Cl)c4)c3c2)o1 [Lapatinib] (partner 2 µM)
Outline: as §1

Cell Line	relative viability (Sulindac + Dasatinib; first compound 0.08 µM)	relative viability (Sulindac + Dasatinib; first compound 0.253 µM)	relative viability (Sulindac + Dasatinib; first compound 0.8 µM)	relative viability (Sulindac + Dasatinib; first compound 2.53 µM)	relative viability (Sulindac + Dasatinib; first compound 8 µM)	relative viability ([1]; first compound 0.005 µM)	relative viability ([1]; first compound 0.01581 µM)	relative viability ([1]; first compound 0.05 µM)	relative viability ([1]; first compound 0.1581 µM)	relative viability ([1]; first compound 0.5 µM)	relative viability ([2]; first compound 0.02 µM)	relative viability ([2]; first compound 0.2 µM)	relative viability ([2]; first compound 0.6325 µM)	relative viability ([2]; first compound 2 µM)	relative viability ([3]; first compound 0.02 µM)	relative viability ([3]; first compound 0.2 µM)	relative viability ([3]; first compound 0.6325 µM)	relative viability ([3]; first compound 2 µM)
LCLC-97TM1	0.996	0.951	0.637	0.711	0.998	0.197	0.0972	0.152	0.119	0.153	0.627	0.808	0.613	0.334	0.693	0.857	0.617	0.272
NCI-H2170	0.631	0.586	0.659	0.508	0.741	0.302	0.165	0.232	0.151	0.113	0.507	0.541	0.503	0.3	0.282	0.317	0.273	0.27
NCI-H1793	0.431	0.38	0.369	0.408	0.398	0.534	0.248	0.277	0.191		0.205	0.183	0.203	0.176	0.581	0.853	0.471	0.347
NCI-H322M	0.26	0.244	0.268	0.244	0.275	0.683	0.384	0.312	0.309	0.252	0.841	1	0.724	0.552	0.615	0.598	0.559	0.467
RERF-LC-KJ	1.03	0.973	0.692	0.802	0.838	0.565	0.308	0.284	0.151	0.141	1.42	1.24	1.22	0.904	0.903	0.824	0.846	0.704
EPLC-272H	0.424	0.377		0.358	0.332	0.333	0.141	0.176	0.1	0.0694	0.313	0.296	0.208	0.198	0.97	0.879	0.358	0.339
A-427	0.92	0.76	0.547	0.714	0.755	0.524	0.335	0.329	0.103	0.106	1.01	0.883	0.682	0.548	1.02	1.07	1.07	0.792
